{"source": "patent US20230172966A1", "about": "“COMPOSITION FOR THE PREVENTION AND TREATMENT OF FOLATE AND/OR VITAMIN B12 DEFICIENCY CONDITIONS, PARTICULARLY HYPERHOMOCYSTEINEMIA” (INPHA RESEARCH S.R.L., priority 2020, published 2023)", "key": {"[1]": {"test": "Gastric Simulated Fluid (GSF) Test", "type": "physicochemical", "method": "Gastric Simulated Fluid (GSF) Test.\nFor all the experiments, physiological gastric conditions were reproduced taking into account the volume of gastric fluid on an empty stomach (35-40 mL) (Mudie D M et al. Quantification of gastrointestinal liquid volumes and distribution following a 240 mL dose of water in the fasted state. Mol Pharm. 2014 Sep. 2; 11(9):3039-47) and the fact that in the stomach, the salt concentration is different from that of blood plasma (0.25% vs 0.9%) (Sandra Klein. The Use of Biorelevant Dissolution Media to Forecast the In Vivo Performance of a Drug. AAPS J. 2010 September; 12(3): 397-406).\nThe effect of the alkalizing agent on gastric pH was simulated in vitro by preparing a 0.2% saline solution of NaCl and bringing the pH of the solution to around 1.2-2 with 37% hydrochloric acid diluted 1:5.\nGSF was prepared using the components in table 1, all tests were performed simulating body temperature (37° C.) and performed in triplicate.\n400 ml of GSF was stirred with magnetic stirrer and settled at 37° C. and the three-point digital pH meter was applied. 40 mg of Folic Acid was added to this solution.\nThe bright orange dispersion was stirred for 5 minutes at 200 rpm and then the stirring was stopped.\nThe same experiment was repeated adding 30 mg of Zinc Oxide to the same amount of folic acid. […] Such a pH was maintained in the range 5.0-5.5 also by simulating physiological acid secretion, combining 2 ml of 0.1 M HCl every 15 minutes for a total of 60 minutes."}, "[2]": {"conditions": "non-ionized carboxylic acid form, in contact with gastric fluid (pH 1.5-2.0 empty, 3.5-4.5 full stomach); cited from earlier work"}}, "data": [{"compound": "[O]=[Zn]", "note": "[Zinc Oxide]", "values": [{"measurement": "pH recorded in GSF after stirring", "setting": "[1]; 30 mg Zinc Oxide + 40 mg folic acid in 400 ml GSF (initial pH 1.2-2), 37° C., after 5 minutes at 200 rpm", "result": 5.2}, {"measurement": "pH maintained under simulated physiological acid secretion", "setting": "[1]; 30 mg Zinc Oxide + 40 mg folic acid in 400 ml GSF, 2 ml of 0.1 M HCl every 15 minutes for a total of 60 minutes", "result": "5.0-5.5"}]}, {"compound": "Nc1nc2ncc(CNc3ccc(C(=O)N[C@@H](CCC(=O)O)C(=O)O)cc3)nc2c(=O)[nH]1", "note": "[folic acid, pteroyl(mono)-glutamic acid]", "values": [{"measurement": "water solubility", "setting": "[2]", "result": "< 10", "unit": "µg/mL"}, {"measurement": "observation of folic acid solubility/precipitation in GSF", "setting": "[1]; 40 mg Folic Acid alone in 400 ml GSF pH 1.2-2, 37° C., stirred 5 minutes at 200 rpm, observed after 10 minutes", "result": "complete precipitation"}, {"measurement": "observation of folic acid dissolution in GSF with Zinc Oxide", "setting": "[1]; 40 mg folic acid + 30 mg Zinc Oxide in 400 ml GSF, 37° C., stirred 5 minutes at 200 rpm", "result": "translucent orange solution in the absence of precipitation"}]}]}
